Laboratory results taken from paper PMC8881610 (Nature Communications, 2022).

How the values were obtained:
Assay type in all cases: cell-based
[1] = biological target: GCGR (Homo sapiens, UniProt P47871, Y138A); test: cAMP accumulation assay, GCGR WT, mutant or modified constructs; set-up: V5 (C); 6×His (C); expressed in transfected cells; host or cells: HEK293T; conditions: HEK-293T, GCGR Y138A; HEK293T
Protocol: (§1) Human embryonic kidney 293 cells containing SV40 large T-antigen (HEK293T) were cultured in DMEM (Gibco) supplemented with 10% (v/v) fetal bovine serum (FBS, Gibco), 1 mM sodium pyruvate (Gibco) and 100 units/mL penicillin and 100 μg/mL streptomycin at 37 °C in 5% CO2. Chinese hamster ovary (CHO-K1) cells were cultured in F-12 (Gibco) containing 10% FBS, 100 units/mL penicillin and 100 μg/mL streptomycin at 37 °C in 5% CO2. For cAMP and receptor expression assays, HEK293T cells were seeded into 6-well cell culture plates at a density of 7 × 10^5 cells per well. After overnight incubation, cells were transfected with GIPR, GLP-1R or GCGR construct using Lipofectamine 2000 or Lipofectamine 3000 transfection reagent (Invitrogen). For whole-cell binding assay, CHO-K1 cells were seeded into 96-well fibronectin-treated cell culture plates at a density of 3 × 10^4 cells per well. After overnight incubation, cells were transfected with GIPR, GLP-1R or GCGR construct using Lipofectamine 2000 transfection reagent (Invitrogen). Following 24 h culturing, the transfected cells were ready for use. […]
(§2) For GIPR, GLP-1R and GCGR, multi-targeting agonist stimulated cAMP accumulation was measured by a LANCE Ultra cAMP kit (PerkinElmer). After 24 h culture, the transfected cells were seeded into 384-well microtiter plates at a density of 3,000 cells per well in HBSS supplemented with 5 mM HEPES, 0.1% (w/v) BSA or 0.1% (w/v) casein and 0.5 mM 3-isobutyl-1-methylxanthine. The cells were stimulated with different concentrations of peptide agonists for 40 min at RT. Eu-cAMP tracer and ULight^TM-anti-cAMP were then diluted by cAMP detection buffer and added to the plates separately to terminate the reaction. Plates were incubated at RT for 1 h and the fluorescence intensity measured at 620 nm and […] by an EnVision multilabel plate reader (PerkinElmer).

[2] = biological target: GCGR (Homo sapiens, UniProt P47871, D195A); test: as above; set-up: V5 (C); 6×His (C); expressed in transfected cells; host or cells: HEK293T; conditions: HEK-293T, GCGR D195A; HEK293T
GCGR (Homo sapiens, UniProt P47871, D195A), sequence (P47871 26-477 D195A): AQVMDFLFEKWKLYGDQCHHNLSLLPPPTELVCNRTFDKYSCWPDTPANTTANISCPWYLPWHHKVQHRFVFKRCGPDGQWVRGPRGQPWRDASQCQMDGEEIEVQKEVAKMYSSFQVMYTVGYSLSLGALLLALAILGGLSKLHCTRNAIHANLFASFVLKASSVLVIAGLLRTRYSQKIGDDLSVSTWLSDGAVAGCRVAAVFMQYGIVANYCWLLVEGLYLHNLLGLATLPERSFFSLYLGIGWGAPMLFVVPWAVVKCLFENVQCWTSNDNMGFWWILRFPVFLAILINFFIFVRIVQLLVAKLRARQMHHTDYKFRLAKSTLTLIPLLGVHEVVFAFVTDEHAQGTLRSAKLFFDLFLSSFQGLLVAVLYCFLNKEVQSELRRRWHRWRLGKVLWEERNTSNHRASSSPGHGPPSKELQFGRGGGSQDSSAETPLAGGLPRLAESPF
Protocol: as §1, §2

[3] = biological target: GCGR (Homo sapiens, UniProt P47871, Y202A); test: as above; set-up: V5 (C); 6×His (C); expressed in transfected cells; host or cells: HEK293T; conditions: HEK-293T, GCGR Y202A; HEK293T
GCGR (Homo sapiens, UniProt P47871, Y202A), sequence (P47871 26-477 Y202A): as the sequence (P47871 26-477 D195A) above, with A170D, Y177A counted along it
Protocol: as §1, §2

[4] = biological target: GCGR (Homo sapiens, UniProt P47871, Q131A); test: as above; set-up: V5 (C); 6×His (C); expressed in transfected cells; host or cells: HEK293T; conditions: GCGR Q131A, HEK293T
GCGR (Homo sapiens, UniProt P47871, Q131A), sequence (P47871 26-477 Q131A): as the sequence (P47871 26-477 D195A) above, with Q106A, A170D counted along it
Protocol: as §1, §2

[5] = biological target: GCGR (Homo sapiens, UniProt P47871, W87A); test: as above; set-up: V5 (C); 6×His (C); expressed in transfected cells; host or cells: HEK293T; conditions: HEK-293T, GCGR W87A; HEK293T
GCGR (Homo sapiens, UniProt P47871, W87A), sequence (P47871 26-477 W87A): as the sequence (P47871 26-477 D195A) above, with W62A, A170D counted along it
Protocol: as §1, §2

[6] = biological target: GLP-1R (Homo sapiens, UniProt P43220, K202A); test: cAMP accumulation assay, GLP-1R WT, mutant or modified constructs; set-up: Flag; expressed in transfected cells; host or cells: HEK293T; conditions: GLP-1R K202A, HEK293T
GLP-1R (Homo sapiens, UniProt P43220, K202A), sequence (P43220 24-463 K202A): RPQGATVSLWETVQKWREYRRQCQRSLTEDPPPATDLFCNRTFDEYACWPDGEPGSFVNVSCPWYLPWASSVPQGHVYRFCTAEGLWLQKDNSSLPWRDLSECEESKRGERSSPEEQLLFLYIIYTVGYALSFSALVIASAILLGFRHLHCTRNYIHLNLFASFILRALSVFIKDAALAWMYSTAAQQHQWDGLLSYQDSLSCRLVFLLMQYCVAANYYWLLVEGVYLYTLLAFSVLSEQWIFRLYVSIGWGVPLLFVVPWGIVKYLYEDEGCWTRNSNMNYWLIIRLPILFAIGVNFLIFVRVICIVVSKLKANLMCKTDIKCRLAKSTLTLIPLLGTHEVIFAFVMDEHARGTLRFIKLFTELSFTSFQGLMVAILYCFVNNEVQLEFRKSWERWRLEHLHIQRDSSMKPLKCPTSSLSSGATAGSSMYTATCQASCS
How it was run: (§3)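 HEK293T cells transiently expressing wild-type, mutant or modified human GLP-1R (HA signal peptide constructs) were used. Cells were stimulated with peptide agonists for 40 min at room temperature in HBSS with 0.5 mM IBMX and 0.1% BSA or casein. cAMP was quantified by LANCE Ultra TR-FRET (620/650 nm).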

[7] = biological target: GLP-1R (Homo sapiens, UniProt P43220, W39A); test: as above; set-up: Flag; expressed in transfected cells; host or cells: HEK293T; conditions: HEK-293T, GLP-1R W39A; HEK293T
GLP-1R (Homo sapiens, UniProt P43220, W39A), sequence (P43220 24-463 W39A): as the sequence (P43220 24-463 K202A) above, with W16A, A179K counted along it
How it was run: as §3

[8] = biological target: GLP-1R (Homo sapiens, UniProt P43220, D198A); test: as above; set-up: Flag; expressed in transfected cells; host or cells: HEK293T; conditions: GLP-1R D198A, HEK293T
GLP-1R (Homo sapiens, UniProt P43220, D198A), sequence (P43220 24-463 D198A): as the sequence (P43220 24-463 K202A) above, with D175A, A179K counted along it
How it was run: as §3

[9] = read-out: cAMP pEC50 (converted)

GCGR (Homo sapiens, UniProt P47871, Y138A), sequence (P47871 26-477 Y138A): as the sequence (P47871 26-477 D195A) above, with Y113A, A170D counted along it

Q: Which Emax [1] does the source give for `CCCCCCCCCCCCCCCC(=O)N[C@@H](CCC(=O)NCCCC[C@H](NC(=O)[C@H](CC(=O)O)NC(=O)[C@H](CO)NC(=O)[C@@H](NC(=O)[C@H](Cc1ccccc1)NC(=O)[C@@H](NC(=O)CNC(=O)[C@H](CCC(N)=O)NC(=O)C(C)(C)NC(=O)[C@@H](N)Cc1c[nH]cn1)[C@@H](C)O)[C@@H](C)O)C(=O)N[C@@H](CO)C(=O)N[C@@H](CCCCN)C(=O)N[C@@H](Cc1ccc(O)cc1)C(=O)N[C@@H](CC(C)C)C(=O)N[C@@H](CC(=O)O)C(=O)N[C@@H](CCC(=O)O)C(=O)N[C@@H](CCCNC(=N)N)C(=O)N[C@@H](C)C(=O)N[C@@H](C)C(=O)N[C@@H](CCC(N)=O)C(=O)N[C@@H](CC(=O)O)C(=O)N[C@@H](Cc1ccccc1)C(=O)N[C@H](C(=O)N[C@@H](CCC(N)=O)C(=O)N[C@@H](Cc1c[nH]c2ccccc12)C(=O)N[C@@H](CC(C)C)C(=O)N[C@@H](CC(C)C)C(=O)N[C@@H](CC(=O)O)C(=O)NCC(=O)NCC(=O)N1CCC[C@H]1C(=O)N[C@@H](CO)C(=O)N[C@@H](CO)C(=O)NCC(=O)N[C@@H](C)C(=O)N1CCC[C@H]1C(=O)N1CCC[C@H]1C(=O)N1CCC[C@H]1C(=O)N[C@@H](CO)C(N)=O)C(C)C)C(=O)O` [Peptide 20] here?
A: Its Emax is 101 ± 2.39%.

Q: What about the Emax [2] of the same molecule?
A: Its Emax is 102 ± 2.1%.

Q: What about the Emax [3] of the same molecule?
A: Its Emax is 103 ± 2.48%.

Q: And the EC50 [4, 9]?
A: The EC50 was 28.2 pM.

Q: What about the Emax ([4]; HEK-293T) of the same molecule?
A: Its Emax is 101 ± 1.59%.

Q: And the Emax [5]?
A: The Emax was 98.1 ± 1.54%.

Q: What about the EC50 [6, 9] of the same molecule?
A: Its EC50 is 2.57 pM.

Q: And the Emax ([6]; HEK-293T)?
A: The Emax was 100 ± 1.97%.

Q: What about the Emax [7] of the same molecule?
A: The Emax was 100 ± 1.04%.

Q: What about the EC50 [8, 9] of the same molecule?
A: Its EC50 is 4.47 pM.

Q: What about the Emax ([8]; HEK-293T) of the same molecule?
A: The Emax was 99.9 ± 1.82%.
